The values below come from patent US20260325542A1, “CANCER TARGETING COMPLEX, AND COMPOSITION COMPRISING SAME FOR PREVENTING OR TREATING CANCER” (EWHA UNIVERSITY - INDUSTRY COLLABORATION FOUNDATION, priority 2023, published 2026).

Data set [1] relates to liver tissue. The data set is described as follows: TUNEL analysis of liver tissue. To be noted: excised after 15 days. The class given is in vivo, mouse.
The test system of data set [2] is BRD4 and c-Myc. Description: Immunofluorescence of excised cancer tissue (DAPI, anti-BRD4, anti-c-Myc). The class given is in vivo, mouse. To be noted: vs comparison group and control group. The protocol: (§1) The control group was administered saline (10 mg/kg) once every 3 days for 15 days through the tail vein (total 4 administrations). The comparison group was administered ARV-771 (10 mg/kg) once every 3 days for 15 days through the tail vein (total 4 administrations). The example group was administered ECMal-PROTAC 10 mg/kg (wquiv. to ARV-771) of example 1 once every 3 days for 15 days through the tail vein (total 4 administrations).
FIG. 33 is an image taken with a confocal laser scanning microscope after staining cancer tissue excised from the control group (Control, Saline), the comparison group (ARV-771, intravenous injection), and the example group (ECMal-PROTAC, intravenous injection) with DAPI, anti-BRD4, and anti-c-Myc.

Data set [3] concerns the target T1, BSA (bovine serum albumin) (Bos taurus, UniProt P02769).
T1 construct: free Cys34 thiol reacts with maleimide
The data set is described as follows: In vitro binding of ECMal-PROTAC to albumin (thiol-maleimide reaction), RP-HPLC. To be noted: BSA 200 μM, ECMal-PROTAC 140 μM, 1:1 volume ratio. The protocol:
The binding rate of ECMal-PROTAC from example 1 and albumin was confirmed through RP-HPLC. Specifically, a BSA solution (200 μM) diluted with PBS was co-incubated by mixing it with an ECMal-PROTAC aqueous solution (140 μM) of example 1 at a 1:1 volume ratio. The culture was collected at incubation times of 0 minutes, 5 minutes, 30 minutes, and 60 minutes. It was quenched with mercaptoethanol, and HPLC spectra for each sample were acquired through concentration gradient of the eluent (ACN/H2O, 20/80 to 80/20 (v/v), 30 minutes).
To verify the albumin binding ability of the complex for cancer targeting (ECMal-PROTAC) of example 1, the mixture of BSA and the complex for cancer targeting (ECMal-PROTAC) was analyzed by LC-MS spectrum, and compared with the LC-MS spectrum of free BSA.
FIG. 4 is the HPLC spectrum of a mixture of BSA and the complex for cancer targeting (ECMal-PROTAC). According to this, it can be seen that BSA and the complex for cancer targeting (ECMal-PROTAC) rapidly bind through a thiol-maleimide click chemical reaction. To confirm the albumin binding ability of the complex for cancer targeting (ECMal-PROTAC) of example 1, bovine serum albumin (BSA), which has a structure similar to human serum albumin (HSA), was used for analysis.
At this time, the HPLC spectra were also analyzed for a co-incubation of ARV-771 (140 μM) and BSA solution (200 μM) mixed at a 1:1 volume ratio as a comparative example, and for the ECMal-PROTAC solution and BSA solution alone without any treatment of example 1.
From the HPLC results for the BSA and complex for cancer targeting (ECMal-PROTAC) mixture in Experimental Example 1 and the thiol-blocked BSA and complex for cancer targeting (ECMal-PROTAC) mixture in Experimental Example 2, the reduction in the HPLC peak area associated with the complex for cancer targeting (ECMal-PROTAC) was quantified.

For data set [4], the system named is organ tissue and cancer tissue. Description: H&E histology of major organs and cancer tissue. The class given is in vivo, mouse. To be noted: excised after 15 days. The protocol: as §1
(§2) The control group, the comparison group, and the example group were euthanized after 15 days, and major organs (heart, liver, lung, spleen, kidney) and cancer tissue were excised.
(§3) Furthermore, to analyze cancer cell apoptosis, TUNEL (terminal deoxynucleotidyl transferase dUTP nick end labeling) analysis was performed on cancer tissue excised from the control group, the comparison group, and the example group. Next, histological analysis was performed by H&E (hematoxylin & eosin) staining of the major organ tissues and cancer tissue of each excised group.
According to FIG. 29, major organ tissue and cancer tissue were excised from the control group, the comparison group, and the example group after 15 days. The excised organ tissue and cancer tissue were stained with H&E (hematoxylin & eosin). The H&E stained tissue was observed using a BX51 optical microscope (Olympus, Tokyo, Japan) and a TCS SP8 confocal laser microscope.

The subject of data set [5] is cancer tissue. Description: TUNEL analysis of excised cancer tissue. The format is in vivo, mouse. The settings on record: cancer tissue excised after 15 days. The protocol: Cancer animal models were prepared by inoculating 1×10^6 4T1 cells into the left thigh of the mice, and raising them until the tumor volume reached 50-80 mm^3.
as §1, §2, §3

Data set [6] relates to 4T1 cells. Description: CCK-8 assay, toxicity on cancer cells. The settings on record: CCK-8, 48 hours. The class given is cell-based, mouse. The protocol: The toxicity of ARV-771 and ECMal-PROTAC on cancer cells was analyzed by the CCK-8 (cell counting kit-8) assay. 4T1 cells were dispensed into a 96-well culture plate at 3×10^3 cells per well. They were cultured for 24 hours at 37° C. and 5% carbon dioxide atmosphere. The cells were treated with different concentrations of ARV-771 (0.01 to 100 μM), the complex for cancer targeting (ECMal-PROTAC) of example 1 (0.01 to 100 μM), and the complex for cancer targeting (Mal-PROTAC) of example 2 (0.01 to 100 μM) separately, and cultured for 48 hours. After exposing each well to 10% CCK-8-containing culture media for 30 minutes, the viability of 4T1 cells treated with ARV-771 or 4T1 cells treated with ECMal-PROTAC or Mal-PROTAC was analyzed with a microplate reader. The change in cell viability according to the concentration of ARV-771 or ECMal-PROTAC or Mal-PROTAC was calculated using GraphPad Prism 8 software (GraphPad Software, San Diego, CA, USA) by fitting the IC50 (haf-maximal inhibitory concentration) value.
A general note: Tetrazolium assays rely on reduction of a dye to a coloured formazan, in cell work by metabolically active cells.

Data set [7] has as its system c-Myc. Description: Western blot of excised cancer tissue, c-Myc. The class given is in vivo, mouse. The protocol: as §1
The target in data set [8] is T2, BRD4 (Mus musculus, UniProt Q9ESU6).
T2 construct: Western blot after PROTAC (ARV-771 release, VHL recruiting)
The data set is described as follows: Western blot of excised cancer tissue, BRD4. The format is in vivo. The protocol:
as §1
In general terms: A western blot detects proteins with antibodies after separation by electrophoresis.

Data set [9] is described as follows: Body weight and systemic side effects. The format is in vivo, mouse. The settings on record: 10 mg/kg, i.v., once every 3 days for 15 days. The protocol:
as §1
Tumor size and body weight were measured every two days for the control group, the comparison group, and the example group.

Data set [10] concerns the target T2, BRD4. The data set is described as follows: DAB staining of excised cancer tissue. The class given is in vivo. To be noted: FIG. 34. The protocol: as §1
FIG. 34 is the result of DAB staining of cancer tissue excised from the control group, the comparison group, and the example group.

The mark [11] stands for this setting: Western blot, vs ARV-771 group (so in the source).

T1 sequence (P02769 25-607): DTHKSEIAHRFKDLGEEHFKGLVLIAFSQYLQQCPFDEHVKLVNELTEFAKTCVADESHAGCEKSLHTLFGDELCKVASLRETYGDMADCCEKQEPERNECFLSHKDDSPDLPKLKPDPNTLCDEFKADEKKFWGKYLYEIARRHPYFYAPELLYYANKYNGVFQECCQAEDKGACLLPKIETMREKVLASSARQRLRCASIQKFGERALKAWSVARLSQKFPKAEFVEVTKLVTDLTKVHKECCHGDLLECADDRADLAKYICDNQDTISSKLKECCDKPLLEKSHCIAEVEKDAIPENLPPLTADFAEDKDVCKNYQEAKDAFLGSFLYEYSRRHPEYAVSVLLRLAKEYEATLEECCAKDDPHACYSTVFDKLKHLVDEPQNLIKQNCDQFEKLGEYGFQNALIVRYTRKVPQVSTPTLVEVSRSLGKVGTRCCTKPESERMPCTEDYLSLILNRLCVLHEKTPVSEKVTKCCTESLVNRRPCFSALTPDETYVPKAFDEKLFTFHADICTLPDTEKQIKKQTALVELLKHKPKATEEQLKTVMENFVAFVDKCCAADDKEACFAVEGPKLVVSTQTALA

As to `Cc1ncsc1-c1ccc([C@H](C)NC(=O)[C@@H]2C[C@@H](OC(=O)CCCCn3nnc4c3CCC3C(CC4)C3COC(=O)NCCOCCOCCNC(=O)CCN3C(=O)C=CC3=O)CN2C(=O)[C@@H](NC(=O)COCCCOCCNC(=O)C[C@@H]2N=C(c3ccc(Cl)cc3)c3c(sc(C)c3C)-n3c(C)nnc32)C(C)(C)C)cc1` (stereo partly shown) [ECMal-PROTAC], in [1], the “apoptosis rate in liver tissue vs control (TUNEL)” value was “no significant difference in the apoptosis rate”. Besides, the “fluorescence signals related to c-Myc and BRD4” value in data set [2] is “weaker fluorescence signals”. The “completion of thiol-maleimide reaction with BSA within 3 minutes” value in data set [3] (within 3 minutes) is “more than 75%”. In addition, in [3] (within 10 minutes), the “completion of thiol-maleimide reaction with BSA within 10 minutes” value worked out at 100%. Also, the “damage to the liver tissue” value in data set [4] (H&E) is given as “does not cause damage to the liver tissue”. The “damage in cancer tissue (H&E)” value in data set [4] is recorded as “strong damage”. For the same molecule, the “damage in organ tissue (H&E)” value in data set [4] (liver, lung, spleen, kidney, heart) is “No significant damage”. In addition, the “cancer cell apoptosis (TUNEL)” value in data set [5] was “cancer cell apoptosis was induced throughout the entire cancer tissue”. For the same molecule, in data set [6], the “IC50 compared to native ARV-771” value is given as “slight increase in IC50 compared to native ARV-771”. Also, the IC50 (commonly the concentration at which inhibition is half-maximal) in data set [6] (Mus musculus, 4T1, FIGS. 15A and 15B, read-out: IC50 against cancer cells) turned out to be 7.78 µM. Moreover, in data set [7] (Western blot, 10 mg/kg), the “c-Myc level in cancer tissue vs control” value is recorded as “much lower levels”. The “c-Myc level in cancer tissue, example group vs comparison group” value in data set [7] (setting [11]) is “no significant difference”. For the same molecule, the “relative expression level of c-Myc, fold lower than control group” value in data set [7] (cancer tissue, FIG. 32) was determined as 2.2 times. Besides, in data set [8] (Western blot, 10 mg/kg), the “BRD4 level in cancer tissue vs control” value was “much lower levels”. Besides, the “BRD4 level in cancer tissue, example group vs comparison group” value in [8] (setting [11]) is recorded as “no significant difference”. Also, the “relative expression level of BRD4, fold lower than control group” value in data set [8] (cancer tissue, FIG. 32) was found to be 7.5 times. Also, in data set [9], the systemic side effects entry is reported as “did not show serious systemic side effects” and the weight loss entry is on record as “no significant weight loss was observed”. Also, in [10], the “BRD4 deficiency (DAB staining)” value is recorded as “BRD4 deficiency was confirmed”.
